Laboratory results reported in patent US7482342B2, “Indazolecarboxamide derivatives, preparation and use thereof as CDK1, CDK2 and CDK4 inhibitors” (sanofi-aventis, priority 2002, dated 2009).

Tests used:
[1] = prior art; cited from earlier work

Structure (SMILES)	melting point	pharmacological activity [1]
O=C(NCCCn1ccnc1)c1n[nH]c2ccccc12	154 to 155 °C	–
O=C(Nc1ccncc1)c1n[nH]c2ccc([N+](=O)[O-])cc12	> 260 °C	–
O=C(Nc1ccncc1)c1n[nH]c2ccc(I)cc12	> 260 °C	–
Cc1ccc(CNC(=O)c2n[nH]c3ccccc23)cc1 [N-(4-Methylbenzyl)-1H-indazole-3-carboxamide]	–	no pharmacological activity

The next lines start with results.

melting point	Structure (SMILES)	pharmacological activity [1]
187 to 188 °C	CCOC(=O)c1cccc(NC(=O)c2n[nH]c3ccccc23)c1	–
> 250 °C	O=C(O)c1cccc(NC(=O)c2n[nH]c3ccccc23)c1	–
218 °C	O=C(Nc1ccc(Nc2ccccc2)cc1)c1n[nH]c2ccccc12 [Compound No. 4, N-(4-Phenylaminophenyl)-1H-indazole-3-carboxamide]	–
